Measurements published in patent US12459951B2, “Compounds that interact with RAS superfamily proteins for treatment of cancers, inflammatory diseases, rasopathies, and fibrotic disease” (SHY Therapeutics, LLC, priority 2022, dated 2025).

What was measured:
Rac-1 = biological target: T1, Rac-1 (Homo sapiens, UniProt P63000); assay: Ras GTP Binding Domain Inhibition Assay (Ras Superfamily Assay); conditions: read-out: Rac-1: % inh.
T1 construct: made in house
How it was run: (§1)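 Ni-plate capture of His-tagged protein (10-30 μg/mL, o/n 4° C); cpd 20 μM or dilution series, 1% DMSO, 3 h RT ± Sos 556-1049 last h; 100 nM Cy-labelled GTP 45 min RT; 3× wash; fluorescence read.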

KRas G12D mutant = assay: as above; conditions: for KRas G12D mutant + SOS: % inh.: with SOS; for KRas G12D mutant: % inh.: without SOS
How it was run: as §1

KRas wild type = assay: as above; conditions: for KRas wild type + SOS: % inh.: with SOS; for KRas wild type: % inh.: without SOS
How it was run: as §1

TNF-alpha = TNF-alpha Quantification Assay (ELISA), LPS-stimulated RAW 264.7; assay type: cell-based; conditions: Mus musculus, RAW264.7; at 10 μM; read-out: TNFα: % inh.

| SMILES | inhibition at 20 µM (Rac-1) [%] | KRas G12D mutant + SOS: % inh. (KRas G12D mutant; at 20 μM) | KRas G12D mutant: % inh. (KRas G12D mutant; at 20 μM) | KRas wild type + SOS: % inh. (KRas wild type; at 20 μM) | KRas wild type: % inh. (KRas wild type; at 20 μM) | KRas G12D mutant + SOS: % inh. (KRas G12D mutant; 20 μM compound) | KRas G12D mutant: % inh. (KRas G12D mutant; 20 μM compound) | KRas wild type + SOS: % inh. (KRas wild type; 20 μM compound) | KRas wild type: % inh. (KRas wild type; 20 μM compound) | inhibition at 10 µM (TNF-alpha) [%] |
| --- | --- | --- | --- | --- | --- | --- | --- | --- | --- | --- |
| COc1cc(Nc2nc(-c3nccn3C)nn3cc(-c4ccn(C)n4)c(C)c23)ncc1C [Compound 235, N-(4-Methoxy-5-methylpyridin-2-yl)-5-methyl-2-(1-methyl-1H-imidazol-2-yl)-6-(1-methyl-1H-pyrazol-3-yl)pyrrolo[2,1-f][1,2,4]triazin-4-amine] | 50 to 75 | C (C = 50-75% inhibition) | C (C = 50-75% inhibition) | B (B = 26-49% inhibition) | C (C = 50-75% inhibition) |  |  |  |  | 0 |
| COc1cc(Nc2nc(-c3nccn3C)nn3cc(-c4ccn(C)n4)c(C)c23)ncc1C1CC1 [Compound 238, N-(5-Cyclopropyl-4-methoxypyridin-2-yl)-5-methyl-2-(1-methyl-1H-imidazol-2-yl)-6-(1-methyl-1H-pyrazol-3-yl)pyrrolo[2,1-f][1,2,4]triazin-4-amine] | 76 to 100 | D (D = 76-100% inhibition) | D (D = 76-100% inhibition) | D (D = 76-100% inhibition) | D (D = 76-100% inhibition) |  |  |  |  | 50 to 74 |
| Cc1c(-c2ccn(C)n2)cn2nc(-c3nccn3C)nc(Nc3ccc(C(C)(C)O)cn3)c12 [Compound 241, 2-(6-((5-Methyl-2-(1-methyl-1H-imidazol-2-yl)-6-(1-methyl-1H-pyrazol-3-yl)pyrrolo[2,1-f][1,2,4]triazin-4-yl)amino)pyridin-3-yl)propan-2-ol] | 76 to 100 | D (D = 76-100% inhibition) | D (D = 76-100% inhibition) | D (D = 76-100% inhibition) | D (D = 76-100% inhibition) |  |  |  |  | 1 to 24 |
| Cc1c(-c2ccn(C)n2)cn2nc(-c3nccn3C)nc(N)c12 [Compound 211, 5-Methyl-2-(1-methyl-1H-imidazol-2-yl)-6-(1-methyl-1H-pyrazol-3-yl)pyrrolo[2,1-f][1,2,4]triazin-4-amine] | 50 to 75 | C (C = 50-75% inhibition) | C (C = 50-75% inhibition) | D (D = 76-100% inhibition) | C (C = 50-75% inhibition) |  |  |  |  | 0 |
| Cc1c(-c2ccn(C)n2)cn2nc(-c3nccn3C)nc(Nc3cc(N4CCOCC4)ccn3)c12 [Compound 222, 5-Methyl-2-(1-methyl-1H-imidazol-2-yl)-6-(1-methyl-1H-pyrazol-3-yl)-N-(4-morpholinopyridin-2-yl)pyrrolo[2,1-f][1,2,4]triazin-4-amine] | 76 to 100 | D (D = 76-100% inhibition) | D (D = 76-100% inhibition) | D (D = 76-100% inhibition) | D (D = 76-100% inhibition) |  |  |  |  | 0 |
| Cc1c(-c2ccn(C)n2)cn2nc(-c3nccn3C)nc(Nc3cc(OCCNC(=O)CCCC[C@H]4SC[C@H]5NC(=O)N[C@H]54)ccn3)c12 [Compound 186, N-(2-((2-((5-Methyl-2-(1-methyl-1H-imidazol-2-yl)-6-(1-methyl-1H-pyrazol-3-yl)pyrrolo[2,1-f][1,2,4]triazin-4-yl)amino)pyridin-4-yl)oxy)ethyl)-5-((3aR,4R,6aS)-2-oxohexahydro-1H-thieno[3,4-d]imidazol-4-yl)pentanamide] | 76 to 100 |  |  |  |  | D (D = 76-100% inhibition) | D (D = 76-100% inhibition) | D (D = 76-100% inhibition) | D (D = 76-100% inhibition) | 1 to 24 |
| Cc1c(-c2ccn(C)n2)cn2nc(-c3nccn3C)nc(Nc3ccc(OC(F)F)cn3)c12 [Compound 231, N-(5-(Difluorometh-oxy)pyridin-2-yl)-5-methyl-2-(1-methyl-1H-imidazol-2-yl)-6-(1-methyl-1H-pyrazol-3-yl)pyrrolo[2,1-f][1,2,4]triazin-4-amine] | 76 to 100 | C (C = 50-75% inhibition) | C (C = 50-75% inhibition) | B (B = 26-49% inhibition) | B (B = 26-49% inhibition) |  |  |  |  | 0 |
| CCOc1ccc(Nc2nc(-c3nccn3C)nn3cc(-c4ccn(C)n4)c(C)c23)nc1 [Compound 229, N-(5-Ethoxypyridin-2-yl)-5-methyl-2-(1-methyl-1H-imidazol-2-yl)-6-(1-methyl-1H-pyrazol-3-yl)pyrrolo[2,1-f][1,2,4]triazin-4-amine] | 76 to 100 | D (D = 76-100% inhibition) | D (D = 76-100% inhibition) | D (D = 76-100% inhibition) | C (C = 50-75% inhibition) |  |  |  |  | 0 |

Continued, in another order:

| inhibition at 20 µM (Rac-1) [%] | KRas G12D mutant + SOS: % inh. (KRas G12D mutant; at 20 μM) | KRas G12D mutant: % inh. (KRas G12D mutant; at 20 μM) | KRas wild type + SOS: % inh. (KRas wild type; at 20 μM) | KRas wild type: % inh. (KRas wild type; at 20 μM) | KRas G12D mutant + SOS: % inh. (KRas G12D mutant; 20 μM compound) | KRas G12D mutant: % inh. (KRas G12D mutant; 20 μM compound) | KRas wild type + SOS: % inh. (KRas wild type; 20 μM compound) | KRas wild type: % inh. (KRas wild type; 20 μM compound) | SMILES | inhibition at 10 µM (TNF-alpha) [%] |
| --- | --- | --- | --- | --- | --- | --- | --- | --- | --- | --- |
| 50 to 75 |  |  |  |  | B (B = 26-49% inhibition) | B (B = 26-49% inhibition) | B (B = 26-49% inhibition) | B (B = 26-49% inhibition) | COc1ccnc(Nc2nc(-c3nccn3C)nn3cc(-c4ccn(C)n4)c(C(=O)NCC(F)(F)F)c23)c1 [Compound 174, 4-((4-Methoxypyridin-2-yl)amino)-2-(1-methyl-1H-imidazol-2-yl)-6-(1-methyl-1H-pyrazol-3-yl)-N-(2,2,2-trifluoro-ethyl)pyrrolo[2,1-f][1,2,4]triazine-5-carboxamide] | 0 |
| 76 to 100 |  |  |  |  | D (D = 76-100% inhibition) | D (D = 76-100% inhibition) | D (D = 76-100% inhibition) | D (D = 76-100% inhibition) | COCCNC(=O)c1c(-c2ccn(C)n2)cn2nc(-c3nccn3C)nc(Nc3cc(OC)ccn3)c12 [Compound 176, N-(2-Methoxyethyl)-4-((4-methoxypyridin-2-yl)amino)-2-(1-methyl-1H-imidazol-2-yl)-6-(1-methyl-1H-pyrazol-3-yl)pyrrolo[2,1-f][1,2,4]triazine-5-carboxamide] | 0 |
| 76 to 100 | D (D = 76-100% inhibition) | D (D = 76-100% inhibition) | D (D = 76-100% inhibition) | D (D = 76-100% inhibition) |  |  |  |  | Cc1c(-c2ccn(C)n2)cn2nc(-c3nccn3C)nc(Nc3cc(C(C)(C)O)ccn3)c12 [Compound 240, 2-(2-((5-Methyl-2-(1-methyl-1H-imidazol-2-yl)-6-(1-methyl-1H-pyrazol-3-yl)pyrrolo[2,1-f][1,2,4]triazin-4-yl)amino)pyridin-4-yl)propan-2-ol] | 0 |
| 50 to 75 | B (B = 26-49% inhibition) | C (C = 50-75% inhibition) | B (B = 26-49% inhibition) | B (B = 26-49% inhibition) |  |  |  |  | COc1cnc(Nc2nc(-c3nccn3C)nn3cc(-c4ccn(C)n4)c(C)c23)cc1C [Compound 236, N-(5-Methoxy-4-methylpyridin-2-yl)-5-methyl-2-(1-methyl-1H-imidazol-2-yl)-6-(1-methyl-1H-pyrazol-3-yl)pyrrolo[2,1-f][1,2,4]triazin-4-amine] | 0 |
